Active and inactive are the calls of the source. The rule behind the calls is not given here.
Test system: CCRIS mutagenicity, Ames/micronucleus/aberration tests
Test: CCRIS mutagenicity studies
[1] = Test System: AMES SALMONELLA TYPHIMURIUM, Strain/Indicator: TA97, Metabolic Activation: NONE, Method: PREINCUBATION
[2] = Test System: AMES SALMONELLA TYPHIMURIUM, Strain/Indicator: TA98, Metabolic Activation: NONE, Method: STANDARD PLATE
[3] = Test System: AMES SALMONELLA TYPHIMURIUM, Strain/Indicator: TA100, Metabolic Activation: NONE, Method: STANDARD PLATE
[4] = Test System: AMES SALMONELLA TYPHIMURIUM, Strain/Indicator: TA102, Metabolic Activation: NONE, Method: PREINCUBATION
[5] = Test System: AMES SALMONELLA TYPHIMURIUM, Strain/Indicator: TA98, Metabolic Activation: HAMSTER, LIVER, S-9, AROCLOR 1254 (10%), Method: PREINCUBATION
[6] = Test System: AMES SALMONELLA TYPHIMURIUM, Strain/Indicator: TA98, Metabolic Activation: NONE, Method: PREINCUBATION
[7] = Test System: AMES SALMONELLA TYPHIMURIUM, Strain/Indicator: TA98, Metabolic Activation: RAT, LIVER, S-9, AROCLOR 1254 (10%), Method: PREINCUBATION
[8] = Test System: AMES SALMONELLA TYPHIMURIUM, Strain/Indicator: TA100, Metabolic Activation: HAMSTER, LIVER, S-9, AROCLOR 1254 (10%), Method: PREINCUBATION
[9] = Test System: AMES SALMONELLA TYPHIMURIUM, Strain/Indicator: TA100, Metabolic Activation: NONE, Method: PREINCUBATION
[10] = Test System: AMES SALMONELLA TYPHIMURIUM, Strain/Indicator: TA100, Metabolic Activation: RAT, LIVER, S-9, AROCLOR 1254 (10%), Method: PREINCUBATION
[11] = Test System: AMES SALMONELLA TYPHIMURIUM, Strain/Indicator: TA104, Metabolic Activation: NONE, Method: PREINCUBATION
[12] = Test System: AMES SALMONELLA TYPHIMURIUM, Strain/Indicator: TA1535, Metabolic Activation: HAMSTER, LIVER, S-9, AROCLOR 1254 (10%), Method: PREINCUBATION
[13] = Test System: AMES SALMONELLA TYPHIMURIUM, Strain/Indicator: TA1535, Metabolic Activation: NONE, Method: PREINCUBATION
[14] = Test System: AMES SALMONELLA TYPHIMURIUM, Strain/Indicator: TA1535, Metabolic Activation: RAT, LIVER, S-9, AROCLOR 1254 (10%), Method: PREINCUBATION
[15] = Test System: AMES SALMONELLA TYPHIMURIUM, Strain/Indicator: TA1537, Metabolic Activation: NONE, Method: PREINCUBATION

Measured: mutagenic call

O=C(O)CC(O)(CC(=O)O)C(=O)O
inactive: [1] inactive; negative | Test System: AMES SALMONELLA TYPHIMURIUM, Strain/Indicator: TA97, Metabolic Activation: NONE, Method: STANDARD PLATE inactive; negative | Test System: AMES SALMONELLA TYPHIMURIUM, Strain/Indicator: TA97, Metabolic Activation: RAT, LIVER, S-9, AROCLOR 1254, Method: PREINCUBATION inactive; negative | Test System: AMES SALMONELLA TYPHIMURIUM, Strain/Indicator: TA97, Metabolic Activation: RAT, LIVER, S-9, PHENOBARBITAL, Method: STANDARD PLATE inactive; negative | Test System: AMES SALMONELLA TYPHIMURIUM, Strain/Indicator: TA97, Metabolic Activation: S-9, Method: PREINCUBATION inactive; negative | [2] inactive; negative | Test System: AMES SALMONELLA TYPHIMURIUM, Strain/Indicator: TA98, Metabolic Activation: RAT, LIVER, S-9, PHENOBARBITAL, Method: STANDARD PLATE inactive; negative | [3] inactive; negative | Test System: AMES SALMONELLA TYPHIMURIUM, Strain/Indicator: TA100, Metabolic Activation: RAT, LIVER, S-9, PHENOBARBITAL, Method: STANDARD PLATE inactive; negative | [4] inactive; negative | Test System: AMES SALMONELLA TYPHIMURIUM, Strain/Indicator: TA102, Metabolic Activation: RAT, LIVER, S-9, AROCLOR 1254, Method: PREINCUBATION inactive; negative | Test System: AMES SALMONELLA TYPHIMURIUM, Strain/Indicator: TA102, Metabolic Activation: S-9, Method: PREINCUBATION inactive; negative | Test System: AMES SALMONELLA TYPHIMURIUM, Strain/Indicator: TA104, Metabolic Activation: NONE, Method: STANDARD PLATE inactive; negative | Test System: AMES SALMONELLA TYPHIMURIUM, Strain/Indicator: TA104, Metabolic Activation: RAT, LIVER, S-9, PHENOBARBITAL, Method: STANDARD PLATE inactive; negative

COc1ccc(C=O)cc1OC
inactive: [5] inactive; negative | [6] inactive; negative | [2] inactive; negative | [7] inactive; negative | [8] inactive; negative | [9] inactive; negative | [3] inactive; negative | Test System: AMES SALMONELLA TYPHIMURIUM, Strain/Indicator: TA100, Metabolic Activation: RAT LIVER S-9, AROCLOR 1254, Method: PREINCUBATION inactive; negative | [10] inactive; negative | [4] inactive; negative | Test System: AMES SALMONELLA TYPHIMURIUM, Strain/Indicator: TA102, Metabolic Activation: RAT LIVER S-9, AROCLOR 1254, Method: PREINCUBATION inactive; negative | [11] inactive; negative | Test System: AMES SALMONELLA TYPHIMURIUM, Strain/Indicator: TA104, Metabolic Activation: RAT LIVER S-9, AROCLOR 1254, Method: PREINCUBATION inactive; negative | [12] inactive; negative | [13] inactive; negative | [14] inactive; negative | Test System: AMES SALMONELLA TYPHIMURIUM, Strain/Indicator: TA1537, Metabolic Activation: HAMSTER, LIVER, S-9, AROCLOR 1254 (10%), Method: PREINCUBATION inactive; negative | [15] inactive; negative | Test System: AMES SALMONELLA TYPHIMURIUM, Strain/Indicator: TA1537, Metabolic Activation: RAT, LIVER, S-9, AROCLOR 1254 (10%), Method: PREINCUBATION inactive; negative | Test System: E. COLI, Strain/Indicator: CM561 LEXA, Metabolic Activation: NONE, Method: STANDARD PLATE inactive; negative | Test System: E. COLI, Strain/Indicator: CM611 UVRA/LEXA, Metabolic Activation: NONE, Method: STANDARD PLATE inactive; negative | Test System: E. COLI, Strain/Indicator: WP2 UVRA, Metabolic Activation: NONE, Method: STANDARD PLATE inactive; negative

O=Cc1ccccc1Cl
inactive: Test System: AMES SALMONELLA TYPHIMURIUM, Strain/Indicator: TA97, Metabolic Activation: HAMSTER, LIVER, S-9, AROCLOR 1254 (10%), Method: PREINCUBATION inactive; negative | Test System: AMES SALMONELLA TYPHIMURIUM, Strain/Indicator: TA97, Metabolic Activation: HAMSTER, LIVER, S-9, AROCLOR 1254 (30%), Method: PREINCUBATION inactive; negative | [1] inactive; negative | Test System: AMES SALMONELLA TYPHIMURIUM, Strain/Indicator: TA97, Metabolic Activation: RAT, LIVER, S-9, AROCLOR 1254 (10%), Method: PREINCUBATION inactive; negative | Test System: AMES SALMONELLA TYPHIMURIUM, Strain/Indicator: TA97, Metabolic Activation: RAT, LIVER, S-9, AROCLOR 1254 (30%), Method: PREINCUBATION inactive; negative | [5] inactive; negative | Test System: AMES SALMONELLA TYPHIMURIUM, Strain/Indicator: TA98, Metabolic Activation: HAMSTER, LIVER, S-9, AROCLOR 1254 (30%), Method: PREINCUBATION inactive; negative | [6] inactive; negative | Test System: AMES SALMONELLA TYPHIMURIUM, Strain/Indicator: TA98, Metabolic Activation: RAT LIVER S-9, PCB, Method: PREINCUBATION inactive; negative | [7] inactive; negative | Test System: AMES SALMONELLA TYPHIMURIUM, Strain/Indicator: TA98, Metabolic Activation: RAT, LIVER, S-9, AROCLOR 1254 (30%), Method: PREINCUBATION inactive; negative | [8] inactive; negative | Test System: AMES SALMONELLA TYPHIMURIUM, Strain/Indicator: TA100, Metabolic Activation: HAMSTER, LIVER, S-9, AROCLOR 1254 (30%), Method: PREINCUBATION inactive; negative | [9] inactive; negative | Test System: AMES SALMONELLA TYPHIMURIUM, Strain/Indicator: TA100, Metabolic Activation: RAT LIVER S-9, PCB, Method: PREINCUBATION inactive; negative | [10] inactive; negative | Test System: AMES SALMONELLA TYPHIMURIUM, Strain/Indicator: TA100, Metabolic Activation: RAT, LIVER, S-9, AROCLOR 1254 (30%), Method: PREINCUBATION inactive; negative | [11] inactive; negative | Test System: AMES SALMONELLA TYPHIMURIUM, Strain/Indicator: TA104, Metabolic Activation: RAT LIVER S-9, PCB, Method: PREINCUBATION inactive; negative | [12] inactive; negative | Test System: AMES SALMONELLA TYPHIMURIUM, Strain/Indicator: TA1535, Metabolic Activation: HAMSTER, LIVER, S-9, AROCLOR 1254 (30%), Method: PREINCUBATION inactive; negative | [13] inactive; negative | [14] inactive; negative | Test System: AMES SALMONELLA TYPHIMURIUM, Strain/Indicator: TA1535, Metabolic Activation: RAT, LIVER, S-9, AROCLOR 1254 (30%), Method: PREINCUBATION inactive; negative | Test System: AMES SALMONELLA TYPHIMURIUM, Strain/Indicator: TA1537, Metabolic Activation: HAMSTER, LIVER, S-9, AROCLOR 1254 (30%), Method: PREINCUBATION inactive; negative | [15] inactive; negative | Test System: AMES SALMONELLA TYPHIMURIUM, Strain/Indicator: TA1537, Metabolic Activation: RAT, LIVER, S-9, AROCLOR 1254 (30%), Method: PREINCUBATION inactive; negative | Test System: E.COLI, Strain/Indicator: WP2 UVRA, Metabolic Activation: RAT LIVER S-9, PCB, Method: PREINCUBATION inactive; negative

— PubChem BioAssay AID1259407 (Chemical Carcinogenesis Research Information System (CCRIS), 2018)
